Test results from patent US10314826B2, “Methods of treatment of ischemia-induced angiogenesis and arteriogenesis” (UNIVERSITY OF MARYLAND, BALTIMORE, priority 2014, dated 2019).

What was measured:
VSMC = conditions: report of Chavala et al [26]; cited from earlier work
endothelial cells [1] = conditions: report of Chavala et al [26]; cited from earlier work
endothelial cells [2] = conditions: report of Chavala et al [26]; cited from earlier work; remark: listed apart in the source
p53 [3] = conditions: report of Chavala et al [26]; cited from earlier work
p53 [4] = assay: Blood flow restoration after hindlimb ischemia by LDPI, p53-/- mice (specificity control); assay type: in vivo, mouse; conditions: 2 weeks after hindlimb ischemia
Method: (§1) All experiments and animal husbandry were performed with approval from the University of California, San Francisco and University of Maryland Institutional Animal Care and Use Committees. Wild-type (p53^+/+), p53-null (p53^−/−), and p53^−/+ heterozygoytes were maintained on a C57Bl/6 background. […] For pharmacological modulation of p53 in vivo, quinacrine or vehicle (sterile water) was administered intraperitoneally at 10 mg/kg/day, beginning 5 days prior to surgery, and continued daily post-operatively until the experimental endpoint; PFT-α or vehicle (10% DMSO) was administered intraperitoneally at 2 mg/kg/day every other day beginning two days prior to surgery and continued until the experimental end-point. […]
(§2) Restoration of blood flow after hindlimb ischemia was assessed by laser Doppler perfusion imaging (LDPI) of the hindlimb paws using a PeriScan PIM 3 System (Perimed AB; Stockholm, Sweden) as previously described. Three successive readings were averaged and expressed as an ischemic index (ischemic paw over contralateral paw). For mesenteric artery ligation, blood flow was measured in the HF or CTL artery as volume-flow with a nanoprobe secured around the artery (0.5 mm nanoprobe, Transonic Systems Inc., Ithaca, N.Y.) in anesthetized mice. Flow was averaged over ten minutes and expressed as an arterial index (HF artery over CTL artery).

HIF-1α = assay: Immunoblot of HIF-1α protein in ischemic tissue after hindlimb ischemia; assay type: in vivo, mouse
Method: (§3) All experiments and animal husbandry were performed with approval from the University of California, San Francisco and University of Maryland Institutional Animal Care and Use Committees. Wild-type (p53^+/+), p53-null (p53^−/−), and p53^−/+ heterozygoytes were maintained on a C57Bl/6 background. […]
(§4) TA tissue from ischemic and control limbs from were harvested and pulverized in liquid nitrogen. For whole cell lysates, pulverized tissue was incubated in a modified RIPA buffer (50 mM Tris-HCl, pH 7.4; 1% SDS; 1% NP-40; 0.25% sodium deoxycholate; 1 mM PMSF; 1 mM DTT; Complete Mini, EDTA-free protease inhibitor cocktail and PhosStop phosphatase inhibitor tablets (Roche Applied Science; Indianapolis, Ind.), strained, and sonicated 3 times for 10 seconds. Samples were centrifuged at 10,000 G for ten minutes at 4 C, and the supernatant preserved. Protein concentration was measured using a BCA Protein Assay Kit. A total of 20 μg of protein was resolved on a 4-12% Bis-Tris gradiant polyacrylamide gel (Invitrogen; Carlsbad, Calif.) under reduced conditions and transferred to a PVDF membrane (Amersham Biosciences; Pittsburgh, Pa.). […]

VEGF = assay: Immunoblot of VEGF protein in ischemic tissue after hindlimb ischemia; assay type: in vivo, mouse
Method: as §3, §4

aortic rings = assay: Endothelial outgrowth aortic ring assay under hypoxic conditions; assay type: cell-based, mouse; conditions: 20 μM quinacrine, vs vehicle-treated controls
p53 [5] = target: T1, p53 (Mus musculus, UniProt P02340); assay: Blood flow restoration after hindlimb ischemia by laser Doppler perfusion imaging (LDPI), p53+/+ mice; assay type: in vivo; parameters: from tissue; host or cells: live C57Bl/6 p53+/+ mice (hindlimb muscle and arteries); conditions: 2 weeks after hindlimb ischemia, vs vehicle
Method: as §1, §2

p53 [6] = target: T1, p53; assay: Capillary density in ischemic tibialis anterior muscle after hindlimb ischemia; assay type: in vivo; parameters: from tissue; host or cells: live C57Bl/6 p53+/+ mice (hindlimb muscle and arteries); conditions: p53+/+ mice, vs vehicle
p53 [7] = target: T1, p53; assay: Collateral artery development (arteriogenesis, gracilis artery index) after hindlimb ischemia; assay type: in vivo; parameters: from tissue; host or cells: live C57Bl/6 p53+/+ mice (hindlimb muscle and arteries); conditions: p53+/+ mice, vs vehicle
Method: All experiments and animal husbandry were performed with approval from the University of California, San Francisco and University of Maryland Institutional Animal Care and Use Committees. Wild-type (p53^+/+), p53-null (p53^−/−), and p53^−/+ heterozygoytes were maintained on a C57Bl/6 background. […] For pharmacological modulation of p53 in vivo, quinacrine or vehicle (sterile water) was administered intraperitoneally at 10 mg/kg/day, beginning 5 days prior to surgery, and continued daily post-operatively until the experimental endpoint; PFT-α or vehicle (10% DMSO) was administered intraperitoneally at 2 mg/kg/day every other day beginning two days prior to surgery and continued until the experimental end-point. Mesenteric artery ligation was performed on 8- to 12-week old male wild-type and p53^−/− mice as described previously with modifications. A laparotomy was performed and the small intestine exposed and suffused with warmed saline. […] The control artery (CTL) was considered a straight artery three arteries from the site of ligation. […]
Independent experiments with separate animal cohorts for capillary and larger artery analysis were performed. […] Vascular regions were quantified individually and normalized to the contralateral control muscle. […] Two 5 μm sections in two separate areas 0.5 mm apart were measured and the results averaged. […]

p53 [8] = target: T1, p53; assay: Diabetic ischemia model of hindlimb ischemia; assay type: in vivo; parameters: relieving ischemia in a clinically relevant diabetic ischemia model of hindlimb ischemia; from tissue; host or cells: animal model of diabetic hindlimb ischemia (not described further); conditions: clinically relevant diabetic ischemia model of hindlimb ischemia
[9] = quinacrine-treated mice, 7 days after hindlimb ischemia
[10] = quinacrine 10 mg/kg/day intraperitoneally
[11] = PFT-α-treated mice, 3 days after surgery
[12] = PFT-α 2 mg/kg/day every other day intraperitoneally

T1 sequence (P02340 whole entry, the tested form may be a part): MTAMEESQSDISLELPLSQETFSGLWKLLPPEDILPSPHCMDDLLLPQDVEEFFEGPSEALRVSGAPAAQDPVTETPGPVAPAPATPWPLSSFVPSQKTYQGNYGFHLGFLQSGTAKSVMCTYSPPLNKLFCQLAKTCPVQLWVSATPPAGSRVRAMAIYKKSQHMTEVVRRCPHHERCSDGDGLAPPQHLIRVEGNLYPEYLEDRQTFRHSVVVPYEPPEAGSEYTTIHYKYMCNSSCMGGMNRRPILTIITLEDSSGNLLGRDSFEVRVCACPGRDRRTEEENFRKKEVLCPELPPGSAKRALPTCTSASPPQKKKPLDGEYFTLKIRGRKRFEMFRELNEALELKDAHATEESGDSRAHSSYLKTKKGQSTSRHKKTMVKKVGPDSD

COc1ccc(C2=N[C@@H](c3ccc(Cl)cc3)[C@@H](c3ccc(Cl)cc3)N2C(=O)N2CCNC(=O)C2)c(OC(C)C)c1 [Nutlin-3]
proliferation of VSMC (VSMC): inhibited proliferation | proliferation of endothelial cells (endothelial cells [1]): inhibited proliferation | apoptosis in endothelial cells (endothelial cells [2]): induced apoptosis | pathologic retinal angiogenesis (p53 [3]): inhibit pathologic retinal angiogenesis

CCN(CC)CCCC(C)Nc1c2ccc(Cl)cc2nc2ccc(OC)cc12 (stereo not drawn) [quinacrine]
blood flow after ischemia in p53-/- mice (LDPI) (p53 [4]; quinacrine): had no effect on blood flow | HIF-1α protein levels (HIF-1α; [9]): suppressed | VEGF protein levels (VEGF; [9]): suppressed | endothelial outgrowth from aortic rings (aortic rings): significantly inhibited endothelial outgrowth | blood flow after ischemia (LDPI) (p53 [5]; [10]): significantly attenuated the improvement in blood flow | capillary density (p53 [6]; [10]): did not affect capillary density | collateral development (larger vessel growth) (p53 [7]; quinacrine 10 mg/kg/day intraperitoneally, hindlimb ischemia): did impair collateral development

Cc1ccc(C(=O)Cn2c3c(sc2=N)CCCC3)cc1 [PFT-α, pifithrin-α]
blood flow restoration after ischemia in p53-/- mice (LDPI) (p53 [4]; PFT-α): had no effect on blood flow restoration | HIF-1α protein levels (HIF-1α; [11]): increase | VEGF protein levels (VEGF; [11]): increase | blood flow restoration after ischemia (LDPI) (p53 [5]; [12]): enhanced blood flow restoration | capillary growth (capillary counts) (p53 [6]; [12]): No difference in capillary growth was detected | collateral vessel formation (gracilis artery index) (p53 [7]; PFT-α 2 mg/kg/day every other day intraperitoneally, 2 weeks after hindlimb ischemia): collateral vessel formation increased | arteriogenesis and relief of ischemia (p53 [8]): highly effective at increasing arteriogenesis and relieving ischemia
